System: HSPA1A
Assay: Stimulation of HSPA1A mRNA expression in normal human epidermal keratinocytes (RT-QPCR)
Assay type: cell-based
Details: 24 hours, mRNA by RT-QPCR relative to G3PDH, control (untreated cells) normalized to 100% expression
Procedure: Cell type: normal human keratinocytes (NHK) as an immersed monolayer, strongly post-confluent and at the third subculture.
Culture medium: low-calcium K-SFM (Invitrogen) supplemented with Epidermal Growth Factor (EGF Sigma) at 2.5 ng/ml, pituitary extract (EP Invitrogen) 2.5 μg/ml and gentamicin (Sigma) 25 μg/ml. For the treatments with the various compounds, this medium is replaced with K-SFM medium not supplemented with EGF and EP.
Treatment time: 24 hours with the various kosmotropes, and other molecules or extracts, and combinations thereof.
Test compounds: the taurine, D-trehalose, inositol and betaine (Sigma) are dissolved in the culture medium and tested at concentrations of 166 and 500 μg/ml, or, when this was not possible for reasons of solubility or cytotoxicity, at substantially lower concentrations.
The combination of these four compounds in proportions of 1/1/1/1 by weight is tested at the same concentrations.
Assays of the mRNA of HMSPA1A by RT-QPCR: at the end of the incubation period, the culture supernatants are removed and the cells, rinsed with PBS (Invitrogen), are covered with a solution of Tri-reagent (Sigma) and then frozen immediately at −80° C.
Extraction of the total RNA is performed according to the protocol of the Tri-reagent supplier (Sigma) and removal of the traces of DNA is performed with the DNA-free kit (Ambion). The reverse transcription reaction is performed using Oligo(dT) primers and the enzyme superscript II (Gibco).
The PCR (Polymerase Chain Reaction) reactions are performed using a Light Cycler (Roche Molecular Systems, Inc.) and according to the procedures recommended by the supplier. The pairs of primers used in this study allow amplification of the following fragments:
Homo sapiens heat shock protein HSP70 protein 1A (abbreviation HSPA1A; Gene bank NM 02045; fragment size 213 bp) and liver glyceraldehyde 3-phosphate dehydrogenase 1A (abbreviation G3PDH; Gene bank NM 02046; fragment size 269 bp) serving as the reference gene (caretaker gene) for determining the relative expression of the target HSPA1A.
The reaction medium (10 μl) is formed from the primers for the two target mRNAs (HSPA1A and G3PDH), 2.5 μl of tenfold-diluted cDNA, reaction mixture (Roche) containing the enzyme Taq DNA polymerase, SYBR Green I fluorochrome (which becomes incorporated into the double-stranded DNA during the elongation step), and MgCl2.
The incorporation of fluorescence into the amplified DNA is measured continuously in the course of the PCR cycles. For the same used marker, the later a sample leaves (high number of cycles), the lower the initial number of copies of mRNA.
Normal human keratinocyte cultures are treated for 24 hours with noncytotoxic doses (166 and 500 μg/ml) of each of the four osmolytes separately: taurine, D-trehalose, inositol and betaine. The transcriptional expression of HMSPA1A is measured by RT-PCR.
The control (untreated cells) is normalized to correspond to 100% expression.

Row | Structure (SMILES) | stimulation of expression of HSPA1A (166 μg/ml) [%] | stimulation of expression of HSPA1A (500 μg/ml) [%]
1 | OC[C@H]1O[C@H](O[C@H]2O[C@H](CO)[C@@H](O)[C@H](O)[C@H]2O)[C@H](O)[C@@H](O)[C@@H]1O [D-trehalose] | 142 | 181
2 | NCCS(=O)O [Hypotaurine, hypotaurine] | 379 | –
3 | C[N+](C)(C)CC(=O)O [betaine] | 52 | 85
4 | O[C@H]1[C@H](O)[C@@H](O)[C@H](O)[C@@H](O)[C@H]1O [inositol] | 90 | 101
5 | NCCS(=O)(=O)O [taurine] | 171 | 139
